Laboratory results: PMC11996864, “A small-molecule inhibitor of BCL10-MALT1 interaction abrogates progression of diffuse large B cell lymphoma” (The Journal of Clinical Investigation, 2025)
Several values for one entry are separate records, joined by “and”; a condition that tells them apart may be missing. Identical values can stand only once.

Legend:
TMD8 tumor xenografts = experiment: NF-κB target gene mRNA in TMD8 tumor xenografts, qRT-PCR; type: in vivo, mouse
Protocol: Total RNA extraction from the TMD8 tumor xenografts was performed using 80% TRIzol Reagent (Fisher Scientific, Cat# 15596026) and 20% Chloroform for tissue solubilization. After centrifugation, the supernatant was mixed with equal volume of 70% ETOH followed by RNA isolation using the RNeasy Plus Mini
Kit. RNA was transcribed into cDNA using High-Capacity cDNA Reverse Transcription Kit (Applied Biosystems, Cat# 4368814) according to manufacturer’s instructions. RT-PCR was performed using TaqMan Universal PCR Master Mix (Applied Biosystems, Cat# 4304437) and run on a StepOnePlus Real-Time PCR machine (Applied Biosystems). The following probes from ThermoFisher Scientific were used for qRT-PCR: IL2 TaqMan probe Hs00174114, IL6 TaqMan

[1] = test system: BCL10 and MALT1 mRNA in TMD8 cells; experiment: BCL10 and MALT1 mRNA expression, qRT-PCR; type: cell-based, human; conditions: TMD8, 1 μM
human primary T cells = experiment: Human T cell apoptosis, annexin V; type: cell-based
Protocol: Annexin V Alexa 488
(ThermoFisher Scientific, Cat# A13201) and SYTOX Blue Dead Cell (ThermoFisher Scientific, Cat# S34857) stains were used to detect apoptosis in DLBCL cells after treatment with 1 µM compounds for 8 days in TMD8 and OCI-Ly1 and for 5 days in OCI-Ly3 cells, then analyzed with flow cytometry. The percentages of cells in early and late apoptosis were combined for […]
quantification. […]
Human T cell apoptosis. Human CD4/CD8 T cells were isolated from blood using Pan T Cell Isolation Kit (Miltenyi Biotec, Cat# 130-096-535), IRB exemption STUDY21080109. T cells were incubated with DynabeadsTM Human T-Activator CD3/CD28 (Thermo Fisher Scientific, Cat# 11131D) for 72 hours after which cells were grown in RPMI containing 10% FBS and IL-2 (Peprotech, Cat# 200-02). T cells were treated with M1i-124 (1 µM) or DMSO control with media change/drug treatment every 2-4 days. Apoptosis was evaluated on day 6 as described previously except that annexin V 647 was utilized (Invitrogen, A23204). Data is from 3 independent donors. […]

TMD8 cells [2] = experiment: CellTiter-Glo ATP viability; type: cell-based, human
BJAB cells = experiment: Apoptosis, annexin staining flow cytometry; type: cell-based, human
TMD8 cells [3] = experiment: cells; set-up: species or system TMD8 or OCI-Ly3; Inhibition of spontaneous IL-10 secretion from ABC-DLBCL cells, human IL-10 ELISA of supernatants; conditions: Homo sapiens, TMD8, 20 h; IL-10 secretion; read-out: IC50 (µM) IL-10 inhibition
Protocol: Cytokine ELISAs. Cytokines in cell culture supernatants were measured 20-24h after treatment with 0, 0.01, 0.03, 0.1, 0.3, 1, or 3 µM of compounds using the following ELISA kits according to the manufacturer’s instructions: Human IL-2 ELISA (BioLegend Cat# 431804), Human IL-6 ELISA (BioLegend Cat# 430504), and Human IL-10 ELISA (BioLegend Cat# 430604). TMD8 and OCI-Ly3 cells were treated with specific doses of compounds in serum-free media for 20 hours. Jurkat T cells were pretreated with specific doses of compounds for 8 hours in serum-free media, then stimulated with PMA/ionomycin for 16 hours prior to the collection of supernatants. Mouse splenocytes were isolated from spleens of C57/BL6 mice by passing spleens through a 70 micron filter followed by red blood cell lysis using ACK lysing buffer (Quality Biologics, Cat# 118-156-101). […] Supernatant was collected at 24 hours and mouse IL-2 levels were analyzed via ELISA (R&D Systems, Cat# DY402-05). IL-6 and IL-10 are NF-κB–induced cytokines that promote the proliferation and survival of malignant B cells through both autocrine and paracrine mechanisms ([44]), and are negative prognostic factors in ABC-DLBCL ([45], [46]). ABC-DLBCL cell lines spontaneously secrete substantial levels of IL-6 and IL-10, whereas GCB-DLBCL cell lines express only a negligible amount of these cytokines ([24]). […] The IC50 for inhibition of cytokine secretion by each compound in each cell line is reported in Supplemental Table 1.  Figure 4 M1i-124 and M1i-124d1 inhibit MALT1 protease and scaffolding functions, and MALT1-dependent cytokine secretion, in ABC-DLBCL cells. (A and B) Effect of 1 μM compound pretreatment on constitutive RelB cleavage (A) and IκB phosphorylation (B) within TMD8 cells. Representative Western blots are shown along with quantification (mean ± SEM; n = 2). (C) IL6 and IL10 mRNA levels in TMD8 cells treated with 1 μM M1i-124 or M1i-124d1 (mean ± SEM; n = 6). […] Statistical analyses were performed using 1-way ANOVA and Dunnett’s multiple-comparison test. **P < 0.01, ***P < 0.001, ****P < 0.0001.

[4] = 24-hour time point, result in words

Row | SMILES | IRF4 mRNA level in tumors (TMD8 tumor xenografts; [4]) | NFKBID mRNA level in tumors (TMD8 tumor xenografts; [4]) | NFKBIZ mRNA level in tumors (TMD8 tumor xenografts; [4]) | TNFA mRNA level in tumors (TMD8 tumor xenografts; [4]) | IL10 mRNA levels in tumors (TMD8 tumor xenografts; 24 hours after last dose, result in words) | IL6 mRNA level in tumors (TMD8 tumor xenografts; 24 hours after last dose, vs DMSO, result in words) | Gene expression by RT-PCR (normalized) (TMD8 tumor xenografts; NFKBID) | BCL10 mRNA (normalized) ([1]; 48 hrs) | BCL10 mRNA (normalized) ([1]; 72 hrs) | MALT1 mRNA (normalized) ([1]; 72 hrs) | Annexin (% positivity) (human primary T cells; human primary T cells, 1 µM, day 6) | apoptosis of human primary T cells (human primary T cells; vs untreated control, result in words) | Percent cell viability (ATP luminescence) (TMD8 cells [2]; TMD8, M1i-124 (µM) 0.02) | Percent cell viability (ATP luminescence) (TMD8 cells [2]; TMD8, M1i-124 (µM) 0.05) | Percent cell viability (ATP luminescence) (TMD8 cells [2]; TMD8, M1i-124 (µM) 0.1) | Percent cell viability (ATP luminescence) (TMD8 cells [2]; TMD8, M1i-124 (µM) 0.2) | Annexin (% positivity) (BJAB cells; BJAB, individual replicates) | apoptosis of BJAB cells (BJAB cells; result in words) | IC50 (TMD8 cells [3])
1 | O=S(=O)(NCc1ccc2c(c1)OCO2)c1ccc(Cc2ccc(S(=O)(=O)NCc3ccc4c(c3)OCO4)cc2)cc1 [M1i-124] | no effect | no effect | did reduce | did reduce | not affected | significant decrease | 0.81 and 0.72 and 0.56 and 0.88 and 1.03 and 0.82 and 0.76 and 0.92 | 1.102 and 1.661 and 1.831 | 2.063 and 2.239 and 2.314 | 1.674 and 1.428 and 1.962 | 5.305% and 5.353% and 4.227% | no difference | 98.5399% and 121.237% and 91.8987% | 110.558% and 93.9485% and 106.792% | 120.312% and 100.889% | 81.1675% and 99.7783% and 71.7208% | 34.8% and 31.55% and 33.15% | either no or minimal apoptotic response | –
2 | COc1ccc(CNS(=O)(=O)c2ccc(Cc3ccc(S(=O)(=O)NCc4ccc(OC)cc4)cc3)cc2)cc1 [M1i-124d1] | – | – | – | – | – | – | – | – | – | – | – | – | – | – | – | – | – | – | 0.2 µM
